Measurements from BindingDB's records for doi:10.1111/cbdd.12863 (Guangzhou Institutes of Biomedicine and Health, Chinese …, 2017).

Assays:
[1] = target: Epithelial discoidin domain-containing receptor 1 (Homo sapiens, UniProt Q08345); assay: LanthaScreen Eu Kinase Activity Assay; settings: pH 7.5; 25 °C
Experimental: (§1) The effects of compounds on the kinases DDR1 and DDR2 were assessed by using a LanthaScreen Eu kinase activity assay technology (Invitrogen, Carlsbad, CA, USA). […] Reaction buffer for the kinase reaction consists of 50 mm HEPES pH 7.5, 0.01% BRIJ-35, 10 mm MgCl2, and 1 mm EGTA. The concentration of fluorescein-polyGAT substrate (Invitrogen) in the assay was […] reactions were initiated with the addition of […] in the presence of serial dilutions of compounds. The reactions were allowed to proceed for 1 hour at room temperature before a 10 μL preparation of EDTA (20 mm) and Eu-labeled antibody (4 nm) in TR-FRET dilution buffer was added. The final concentration of antibody in the assay well was 2 nm, and the final concentration of EDTA was 10 mm.

[2] = target: T1, Discoidin domain-containing receptor 2 (Homo sapiens, UniProt Q16832); assay: LanthaScreen Eu Kinase Activity Assay; settings: pH 7.5; 25 °C
T1 sequence (Q16832 whole entry): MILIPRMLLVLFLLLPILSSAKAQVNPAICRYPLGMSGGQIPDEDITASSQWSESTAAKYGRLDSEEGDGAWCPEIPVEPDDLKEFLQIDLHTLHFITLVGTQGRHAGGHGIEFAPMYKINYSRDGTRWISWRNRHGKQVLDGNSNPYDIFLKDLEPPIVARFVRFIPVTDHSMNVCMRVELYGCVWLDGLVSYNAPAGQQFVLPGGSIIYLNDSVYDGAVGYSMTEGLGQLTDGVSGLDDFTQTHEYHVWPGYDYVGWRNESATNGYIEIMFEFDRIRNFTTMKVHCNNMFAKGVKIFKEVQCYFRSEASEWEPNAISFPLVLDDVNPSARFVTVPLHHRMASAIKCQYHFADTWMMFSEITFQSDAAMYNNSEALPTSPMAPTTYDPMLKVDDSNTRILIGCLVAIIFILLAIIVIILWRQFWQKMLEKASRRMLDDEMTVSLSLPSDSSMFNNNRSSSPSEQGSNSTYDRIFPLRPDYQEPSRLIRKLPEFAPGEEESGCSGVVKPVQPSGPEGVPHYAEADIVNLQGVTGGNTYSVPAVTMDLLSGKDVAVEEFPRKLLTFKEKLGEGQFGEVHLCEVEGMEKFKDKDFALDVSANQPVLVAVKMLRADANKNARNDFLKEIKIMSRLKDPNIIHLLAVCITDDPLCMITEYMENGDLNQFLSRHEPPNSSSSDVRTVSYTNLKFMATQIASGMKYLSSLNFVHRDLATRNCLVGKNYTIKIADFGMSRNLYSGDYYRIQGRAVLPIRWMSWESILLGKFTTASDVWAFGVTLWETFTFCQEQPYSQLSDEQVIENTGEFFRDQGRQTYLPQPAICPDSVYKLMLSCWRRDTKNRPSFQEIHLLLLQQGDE
Experimental: as §1

Sequence of Epithelial discoidin domain-containing receptor 1 (Q08345 whole entry, the tested form may be a part): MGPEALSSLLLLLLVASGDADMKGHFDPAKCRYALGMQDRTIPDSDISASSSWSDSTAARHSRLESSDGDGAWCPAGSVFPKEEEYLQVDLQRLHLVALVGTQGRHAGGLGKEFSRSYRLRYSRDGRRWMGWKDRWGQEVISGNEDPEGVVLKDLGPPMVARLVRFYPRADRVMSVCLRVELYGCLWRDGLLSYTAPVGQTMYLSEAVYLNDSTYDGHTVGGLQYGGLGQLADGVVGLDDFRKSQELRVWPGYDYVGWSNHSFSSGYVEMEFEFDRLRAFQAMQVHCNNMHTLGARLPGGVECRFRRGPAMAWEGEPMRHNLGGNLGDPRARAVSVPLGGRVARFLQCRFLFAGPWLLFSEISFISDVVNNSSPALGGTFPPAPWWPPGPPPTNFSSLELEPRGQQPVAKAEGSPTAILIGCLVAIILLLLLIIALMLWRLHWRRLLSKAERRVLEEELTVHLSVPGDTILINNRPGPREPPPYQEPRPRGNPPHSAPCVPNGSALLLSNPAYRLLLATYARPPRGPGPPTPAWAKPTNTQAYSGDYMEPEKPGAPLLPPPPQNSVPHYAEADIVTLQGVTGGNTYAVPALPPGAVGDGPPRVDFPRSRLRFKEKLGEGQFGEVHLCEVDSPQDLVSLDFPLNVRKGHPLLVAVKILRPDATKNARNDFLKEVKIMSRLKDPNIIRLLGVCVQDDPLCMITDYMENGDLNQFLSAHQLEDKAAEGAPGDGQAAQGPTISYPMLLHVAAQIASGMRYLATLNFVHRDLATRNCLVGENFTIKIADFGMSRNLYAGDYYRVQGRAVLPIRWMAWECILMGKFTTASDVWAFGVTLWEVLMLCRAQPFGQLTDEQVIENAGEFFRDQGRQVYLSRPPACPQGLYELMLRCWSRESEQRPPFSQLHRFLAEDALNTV

SMILES | IC50 [1] [nM] | IC50 [2] [nM]
Cc1nc(Nc2ncc(C(=O)Nc3c(C)cccc3Cl)s2)cc(N2CCN(C(=O)OCCN(C)C)CC2)n1 [2-(Dimethylamino)ethyl 4-(6-((5-((2-chloro-6-methylphenyl)carbamoyl)thiazol-2-yl)amino)-2-methylpyrimidin-4-yl)-piperazine-1-carboxylate (3k)] | 2.56 | 7.89
Cc1nc(Nc2ncc(C(=O)Nc3c(C)cccc3Cl)s2)cc(N2CCN(C(=O)OCC(C)C)CC2)n1 [Isobutyl 4-(6-((5-((2-chloro-6-methylphenyl)carbamoyl)thiazol-2-yl)amino)-2-methylpyrimidin-4-yl)-piperazine-1-carboxylate (3f)] | 6.75 | 34.6
Cc1nc(Nc2ncc(C(=O)Nc3c(C)cccc3Cl)s2)cc(N2CCN(C(=O)Oc3ccccc3)CC2)n1 [Phenyl 4-(6-((5-((2-chloro-6-methylphenyl)carbamoyl)thiazol-2-yl)amino)-2-methylpyrimidin-4-yl)-piperazine-1-carboxylate (3g)] | 7.14 | 21.3
Cc1nc(Nc2ncc(C(=O)Nc3c(C)cccc3Cl)s2)cc(C2CCN(C(=O)OC(C)C)C2)n1 (stereo not drawn) [Isopropyl 3-(6-((5-((2-chloro-6-methylphenyl)carbamoyl)thiazol-2-yl)amino)-2-methylpyrimidin-4-yl)pyrrolidine-1-carboxylate (5c)] | 9.14 | 72.1
Cc1nc(Nc2ncc(C(=O)Nc3c(C)cccc3Cl)s2)cc(N2CCN(C(=O)OCCN3CCOCC3)CC2)n1 [2-Morpholinoethyl 4-(6-((5-((2-chloro-6-methylphenyl)carbamoyl)thiazol-2-yl)amino)-2-methylpyrimidin-4-yl)-piperazine-1-carboxylate (3j)] | 2.26 | 7.04
C=CC(=O)N1CCC(Nc2cc(Nc3ncc(C(=O)Nc4c(C)cccc4Cl)s3)nc(C)n2)C1 (stereo not drawn) [2-((6-((1-Acryloylpyrrolidin-3-yl)amino)-2-methylpyrimidin-4-yl)amino)-N-(2-chloro-6-methylphenyl)thiazole-5-carboxamide (5k)] | 7.31 | 34.4
COC(=O)N1CCC(c2cc(Nc3ncc(C(=O)Nc4c(C)cccc4Cl)s3)nc(C)n2)C1 (stereo not drawn) [Methyl 3-(6-((5-((2-chloro-6-methylphenyl)carbamoyl)thiazol-2-yl)amino)-2-methylpyrimidin-4-yl)pyrrolidine-1-carboxylate (5a)] | 5.23 | 32.9
Cc1nc(Nc2ncc(C(=O)Nc3c(C)cccc3Cl)s2)cc(N2CCN(C(=O)OCCCl)CC2)n1 [2-Chloroethyl 4-(6-((5-((2-chloro-6-methylphenyl)carbamoyl)thiazol-2-yl)amino)-2-methylpyrimidin-4-yl)-piperazine-1-carboxylate (3i)] | 4.21 | 9
Cc1nc(Nc2ncc(C(=O)Nc3c(C)cccc3Cl)s2)cc(C2CCN(C(=O)Oc3ccccc3)C2)n1 (stereo not drawn) [Phenyl 3-(6-((5-((2-chloro-6-methylphenyl)carbamoyl)thiazol-2-yl)amino)-2-methylpyrimidin-4-yl)pyrrolidine-1-carboxylate (5g)] | 7.51 | 59.9
Cc1nc(Nc2ncc(C(=O)Nc3c(C)cccc3Cl)s2)cc(N2CCN(C(=O)OCc3ccccc3)CC2)n1 [Benzyl 4-(6-((5-((2-chloro-6-methylphenyl)carbamoyl)thiazol-2-yl)amino)-2-methylpyrimidin-4-yl)-piperazine-1-carboxylate (3h)] | 22.6 | 133

Further compounds by falling IC50 [1], results first:

IC50 [1] [nM] | IC50 [2] [nM] | SMILES
48.5 | 156 | CCS(=O)(=O)N1CCC(Nc2cc(Nc3ncc(C(=O)Nc4c(C)cccc4Cl)s3)nc(C)n2)C1 (stereo not drawn) [N-(2-chloro-6-methylphenyl)-2-((6-((1-(ethylsulfonyl)pyrrolidin-3-yl)amino)-2-methylpyrimidin-4-yl)amino)thiazole-5-carboxamide (5j)]
22 | 285 | Cc1nc(Nc2ncc(C(=O)Nc3c(C)cccc3Cl)s2)cc(C2CCN(C(=O)OCc3ccccc3)C2)n1 (stereo not drawn) [Benzyl 3-(6-((5-((2-chloro-6-methylphenyl)carbamoyl)thiazol-2-yl)amino)-2-methylpyrimidin-4-yl)pyrrolidine-1-carboxylate (5h)]
17.9 | 23.9 | CCC(=O)N1CCC(Nc2cc(Nc3ncc(C(=O)Nc4c(C)cccc4Cl)s3)nc(C)n2)C1 (stereo not drawn) [N-(2-chloro-6-methylphenyl)-2-((2-methyl-6-((1-propionylpyrrolidin-3-yl)amino)pyrimidin-4-yl)amino)thiazole-5-carboxamide (5l)]
15.3 | 123 | CCCCOC(=O)N1CCC(c2cc(Nc3ncc(C(=O)Nc4c(C)cccc4Cl)s3)nc(C)n2)C1 (stereo not drawn) [Butyl 3-(6-((5-((2-chloro-6-methylphenyl)carbamoyl)thiazol-2-yl)amino)-2-methylpyrimidin-4-yl)pyrrolidine-1-carboxylate (5e)]
13.3 | 17 | C=CCOC(=O)N1CCC(c2cc(Nc3ncc(C(=O)Nc4c(C)cccc4Cl)s3)nc(C)n2)C1 (stereo not drawn) [Allyl 3-(6-((5-((2-chloro-6-methylphenyl)carbamoyl)thiazol-2-yl)amino)-2-methylpyrimidin-4-yl)pyrrolidine-1-carboxylate (5d)]
12.1 | 85.4 | Cc1nc(Nc2ncc(C(=O)Nc3c(C)cccc3Cl)s2)cc(C2CCN(C(=O)OCC(C)C)C2)n1 (stereo not drawn) [Isobutyl 3-(6-((5-((2-chloro-6-methylphenyl)carbamoyl)thiazol-2-yl)amino)-2-methylpyrimidin-4-yl)pyrrolidine-1-carboxylate (5f)]
11.7 | 38.3 | Cc1nc(Nc2ncc(C(=O)Nc3c(C)cccc3Cl)s2)cc(NC2CCN(S(C)(=O)=O)C2)n1 (stereo not drawn) [N-(2-chloro-6-methylphenyl)-2-((2-methyl-6-((1-(methylsulfonyl)pyrrolidin-3-yl)amino)-pyrimidin-4-yl)amino)thiazole-5-carboxamide (5i)]
9.6 | 22.4 | CCOC(=O)N1CCC(c2cc(Nc3ncc(C(=O)Nc4c(C)cccc4Cl)s3)nc(C)n2)C1 (stereo not drawn) [Ethyl 3-(6-((5-((2-chloro-6-methylphenyl)carbamoyl)thiazol-2-yl)amino)-2-methylpyrimidin-4-yl)pyrrolidine-1-carboxylate (5b)]
6.69 | 21.6 | C=CCOC(=O)N1CCN(c2cc(Nc3ncc(C(=O)Nc4c(C)cccc4Cl)s3)nc(C)n2)CC1 [Allyl 4-(6-((5-((2-chloro-6-methylphenyl)carbamoyl)thiazol-2-yl)amino)-2-methylpyrimidin-4-yl)-piperazine-1-carboxylate (3d)]
4.54 | 6.29 | C=CC(=O)N1CCN(c2cc(Nc3ncc(C(=O)Nc4c(C)cccc4Cl)s3)nc(C)n2)CC1 [2-((6-(4-Acryloylpiperazin-1-yl)-2-methylpyrimidin-4-yl)amino)-N-(2-chloro-6-methylphenyl)-thiazole-5-carboxamide (3l)]
4.32 | 6.76 | COC(=O)N1CCN(c2cc(Nc3ncc(C(=O)Nc4c(C)cccc4Cl)s3)nc(C)n2)CC1 [Methyl 4-(6-((5-((2-chloro-6-methylphenyl)carbamoyl)thiazol-2-yl)amino)-2-methylpyrimidin-4-yl)-piperazine-1-carboxylate (3a)]
4.25 | 8.34 | C/C=C/C(=O)N1CCN(c2cc(Nc3ncc(C(=O)Nc4c(C)cccc4Cl)s3)nc(C)n2)CC1 [(E)-2-((6-(4-(but-2-enoyl)piperazin-1-yl)-2-methylpyrimidin-4-yl)amino)-N-(2-chloro-6-methylphenyl)thiazole-5-carboxamide (3m)]
3.2 | 6.16 | CCCCOC(=O)N1CCN(c2cc(Nc3ncc(C(=O)Nc4c(C)cccc4Cl)s3)nc(C)n2)CC1 [Butyl 4-(6-((5-((2-chloro-6-methylphenyl)carbamoyl)thiazol-2-yl)amino)-2-methylpyrimidin-4-yl)-piperazine-1-carboxylate (3e)]
3.15 | 11.4 | CCOC(=O)N1CCN(c2cc(Nc3ncc(C(=O)Nc4c(C)cccc4Cl)s3)nc(C)n2)CC1 [Ethyl 4-(6-((5-((2-chloro-6-methylphenyl)carbamoyl)thiazol-2-yl)amino)-2-methylpyrimidin-4-yl)-piperazine-1-carboxylate (3b)]
